From ChEMBL document CHEMBL1201862, “PubChem BioAssay data set” (2004)
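The compound was tested at five concentrations on cells cultured in 96-well plates, with a 48-hour exposure period. GI50: concentration for 50% inhibition of growth.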 The source made the active and inactive calls. Rule as the data show it: active = GI50 up to about 1.1 µM and inactive = higher.

How the values were obtained:
Experiment in all cases: NCI anticancer screen, dose series, 48 h
[1] = test system: SK-MEL-5
[2] = test system: NCI-H460
[3] = test system: IGROV-1
[4] = test system: A498
[5] = test system: SN12C
[6] = test system: SNB-75
[7] = test system: RXF 631
[8] = test system: OVCAR-8
[9] = test system: UACC-62
[10] = test system: SK-MEL-28
[11] = test system: TK-10
[12] = test system: M14
[13] = test system: SF-539
[14] = test system: OVCAR-5
[15] = test system: LOX IMVI
[16] = test system: CAKI-1
[17] = test system: SF-268
[18] = test system: KM12
[19] = test system: DMS-114
[20] = test system: SW-620
[21] = test system: HCC 2998
[22] = test system: SNB-19
[23] = test system: HOP-92
[24] = test system: HOP-18
[25] = test system: ACHN
[26] = test system: OVCAR-3
[27] = test system: RPMI-8226
[28] = test system: NCI-H23
[29] = test system: OVCAR-4
[30] = test system: MOLT-4
[31] = test system: UO-31
[32] = test system: DMS-273
[33] = test system: U-251
[34] = test system: 786-0
[35] = test system: NCI-H522
[36] = test system: SF-295
[37] = test system: HL-60
[38] = test system: SK-MEL-2
[39] = test system: RXF 393
[40] = test system: HT-29
[41] = test system: XF498
[42] = test system: Malme-3M
[43] = test system: UACC-257
[44] = test system: CCRF-CEM
[45] = test system: A549
[46] = test system: COLO 205
[47] = test system: NCI-H226
[48] = test system: KM-20L2
[49] = test system: EKVX
[50] = test system: SK-OV-3
[51] = test system: LXFL 529
[52] = test system: HOP-62
[53] = test system: K562
[54] = test system: SNB-78
[55] = test system: HCT-15
[56] = test system: DLD-1
[57] = test system: MCF7
[58] = test system: MDA-MB-231
[59] = test system: SR
[60] = test system: DU-145
[61] = test system: HCT-116
[62] = test system: Hs-578T
[63] = test system: T47D
[64] = test system: BT-549
[65] = test system: PC-3
[66] = test system: MDA-N
[67] = test system: NCI/ADR-RES
[68] = test system: MDA-MB-435

Measured: GI50

COc1ccc(/C(Cl)=C(\C=O)c2ccc([N+](=O)[O-])cc2)cc1
5.25 µM: [55]
inactive: [1] 13.2 µM | [2] 18.3 µM | [3] 22.4 µM | [4] 22.4 µM | [5] 12.3 µM | [6] 5.35 µM | [7] 24.2 µM | [8] 10.9 µM | [9] 7.67 µM | [10] 23 µM | [11] 30.1 µM | [12] 11.8 µM | [13] 12.6 µM | [14] > 100 µM | [15] 3.49 µM | [16] 11.1 µM | [17] 20.5 µM | [18] 2.4 µM | [19] 17.3 µM | [20] 4.34 µM | [21] 21 µM | [22] 18.5 µM | [23] 6.97 µM | [24] 34.9 µM | [25] 18.5 µM | [26] 18.4 µM | [27] 2.37 µM | [28] 14 µM | [29] 17.5 µM | [30] 2.42 µM | [31] 18.5 µM | [32] 20 µM | [33] 10.5 µM | [34] 13.3 µM | [35] 4.36 µM | [36] 13.2 µM | [37] 3.08 µM | [38] 6.98 µM | [39] 11.5 µM | [40] 4.57 µM | [41] 14.8 µM | [42] 15.6 µM | [43] 10.1 µM | [44] 4.1 µM | [45] 17.7 µM | [46] 19.1 µM | [47] 14.1 µM | [48] 15 µM | [49] 21.8 µM | [50] 33 µM | [51] 3.27 µM | [52] 21.5 µM | [53] 3.12 µM | [54] 5.6 µM | [56] 16.7 µM

CS(=O)(=O)c1nc(Cl)c(Cl)c(C#N)c1Cl
inactive: [57] 3.42 µM | [1] 5.12 µM | [2] 11.5 µM | [3] 6.59 µM | [4] 17.5 µM | [5] 2.27 µM | [6] 9.89 µM | [7] 20.2 µM | [60] 11.4 µM | [8] 2.88 µM | [9] 3.31 µM | [10] 2.12 µM | [61] 2.25 µM | [11] 3.18 µM | [12] 1.91 µM | [13] 4.48 µM | [14] 4.39 µM | [15] 1.95 µM | [62] 4.34 µM | [17] 6.76 µM | [18] 6.97 µM | [19] 5.32 µM | [20] 1.14 µM | [21] 14.2 µM | [22] 19.8 µM | [23] 1.99 µM | [24] 6.1 µM | [25] 2.6 µM | [26] 2.08 µM | [27] 2.32 µM | [63] 2.16 µM | [64] 1.9 µM | [28] 1.32 µM | [29] 1.96 µM | [31] 1.91 µM | [32] 6.68 µM | [33] 4.9 µM | [34] 1.94 µM | [65] 5.35 µM | [36] 16.7 µM | [37] 1.15 µM | [66] 1.83 µM | [38] 5.37 µM | [39] 1.61 µM | [67] 2.25 µM | [40] 1.97 µM | [41] 3.09 µM | [42] 2.3 µM | [43] 2.49 µM | [45] 18.7 µM | [46] 1.45 µM | [47] 13.2 µM | [48] 6.03 µM | [49] 6.27 µM | [68] 2.01 µM | [50] 6.75 µM | [51] 1.57 µM | [52] 19.3 µM | [54] 9.91 µM | [56] 1.59 µM
1.61 µM: [55]
active: [58] 0.619 µM | [59] 0.736 µM | [16] 0.984 µM | [30] 0.838 µM | [35] 0.322 µM | [44] 0.998 µM | [53] 0.859 µM
